Read-outs that look alike come from different tables or passages of the source.
Columns and labels:
[1] = target: T1, dopamine-β-hydroxylase (Bos taurus, UniProt P15101); test: Dopamine-β-hydroxylase inhibiting activity (DBH) on bovine adrenal (gland) preparations; type: biochemical; details: read-out: Enzyme inhibiting activity, DBH; for inhibition at 100 µM: 10^-4 mole/liter; for inhibition at 10 µM: 10^-5 mole/liter
T1 construct: from tissue; host or cells: bovine adrenal (gland) preparations
T1 sequence (P15101 1-610): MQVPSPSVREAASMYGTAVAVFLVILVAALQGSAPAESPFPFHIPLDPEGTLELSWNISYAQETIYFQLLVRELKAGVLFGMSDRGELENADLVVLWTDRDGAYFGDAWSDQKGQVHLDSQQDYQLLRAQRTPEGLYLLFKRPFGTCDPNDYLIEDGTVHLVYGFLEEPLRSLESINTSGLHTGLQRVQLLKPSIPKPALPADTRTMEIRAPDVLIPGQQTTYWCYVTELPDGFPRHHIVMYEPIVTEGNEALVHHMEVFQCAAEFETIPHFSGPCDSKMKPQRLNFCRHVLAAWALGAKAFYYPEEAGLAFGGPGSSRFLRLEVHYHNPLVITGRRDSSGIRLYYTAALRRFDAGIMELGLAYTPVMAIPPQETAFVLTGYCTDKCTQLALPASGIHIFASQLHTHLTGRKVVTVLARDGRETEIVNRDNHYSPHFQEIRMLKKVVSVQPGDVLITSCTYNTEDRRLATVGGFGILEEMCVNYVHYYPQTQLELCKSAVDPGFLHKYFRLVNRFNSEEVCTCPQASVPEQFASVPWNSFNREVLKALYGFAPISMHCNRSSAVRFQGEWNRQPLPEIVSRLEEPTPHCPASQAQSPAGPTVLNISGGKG
Protocol: Dopamine-β-hydroxylase inhibiting activity (DBH inhibiting activity) of the compounds according to the invention was tested on bovine adrenal (gland) preparations by a modified version of Nagatsu's method [B.B. Acta, 139 319 (1967)].
(§1) Inhibiting effect of several compounds encompassed by the formula I in comparison with some known compounds is listed in the following Table I.

[2] = tested on: spontaneous hypertensive rats (Wistar-Okamoto rats); test: Blood pressure lowering activity, systolic blood pressure of waking spontaneous hypertensive rats, oral; type: in vivo, rat; details: for change in vivo at 50 mg/kg / change in vivo at 1.25 mg/kg: Rattus norvegicus, read-out: Reduction in blood pressure; for change in vivo at 50 mg/kg / Reduction in blood pressure / change in vivo at 1.25 mg/kg: oral; for significant blood pressure lowering activity: ≥-15%; for change in vivo at 50 mg/kg / Reduction in blood pressure: 50 mg/kg
Protocol: Blood pressure lowering activity of the new compounds according to the invention was tested on spontaneous hypertensive rats (Wistar-Okamoto rats) following the method described in Arzn. Forsch., 6, 222 (1956). Systolic blood pressure of waking animals was measured in arteria caudalis 4, 24, 48 and 72 hours after the oral administration of the test compounds.

[3] = Acute toxicity (LD50) on mice; details: mouse, in vivo, po
[4] = target: T2, tyrosine-hydroxylase (Rattus norvegicus, UniProt P04177); test: In vitro tyrosine-hydroxylase inhibiting activity (TH) on rat adrenal homogenate; type: biochemical; details: read-out: Enzyme inhibiting activity, TH; for inhibition at 100 µM: 10^-4 mole/liter; for inhibition at 10 µM: 10^-5 mole/liter
T2 construct: on rat adrenal homogenate; from tissue; host or cells: rat adrenal homogenate
Protocol: In vitro tyrosine-hydroxylase inhibiting activity (TH inhibiting activity) of the new compounds according to the invention was tested by the method of Nagatsu [Anal. Biochem., 9, 122 (1964)] on rat adrenal homogenate. Radioactive tyrosine was purified by the method elaborated by Ikeda [J. Biol. Chem., 241, 4452 (1966)]. TH activity of the rat adrenal homogenate amounted to […] nmoles/mg protein/60 min.
as §1

[5] = tested on: mice; test: Acute toxicity (LD50) on mice; details: i.p.

T2 sequence (P04177 whole entry): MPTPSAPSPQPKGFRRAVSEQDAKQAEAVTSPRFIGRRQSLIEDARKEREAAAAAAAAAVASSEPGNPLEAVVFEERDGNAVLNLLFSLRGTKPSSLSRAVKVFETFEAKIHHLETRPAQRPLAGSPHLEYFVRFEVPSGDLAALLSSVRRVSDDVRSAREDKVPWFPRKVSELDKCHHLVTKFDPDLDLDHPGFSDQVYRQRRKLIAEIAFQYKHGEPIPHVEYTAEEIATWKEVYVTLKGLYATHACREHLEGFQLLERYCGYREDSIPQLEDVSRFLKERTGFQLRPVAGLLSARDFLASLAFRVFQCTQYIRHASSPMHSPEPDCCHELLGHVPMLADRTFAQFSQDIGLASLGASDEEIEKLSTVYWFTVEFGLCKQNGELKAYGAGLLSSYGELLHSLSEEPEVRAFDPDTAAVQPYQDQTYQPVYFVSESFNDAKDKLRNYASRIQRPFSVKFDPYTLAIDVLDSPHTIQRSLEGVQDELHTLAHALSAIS

Row | Molecule | inhibition at 100 µM [1] [%] | inhibition at 10 µM [1] [%] | change in vivo at 50 mg/kg ([2]; 4 hours) [%] | change in vivo at 50 mg/kg ([2]; 24 hours) [%] | duration of blood pressure lowering effect ([2]; dose 20 mg/kg) [h] | duration of blood pressure lowering effect ([2]; dose of 50 mg/kg) [h] | significant blood pressure lowering activity [2] [%] | LD50 [3] [mg/kg] | inhibition at 100 µM [4] [%] | inhibition at 10 µM [4] [%] | Reduction in blood pressure ([2]; 4 hours) [%] | Reduction in blood pressure ([2]; 24 hours) [%] | Acute toxicity [LD50] on mice [5] [mg/kg] | change in vivo at 1.25 mg/kg ([2]; 4 hours) [%] | change in vivo at 1.25 mg/kg ([2]; 24 hours) [%]
1 | CC(CC(=O)OC(C)C)=NNc1ccc(Cl)nn1 [Example 29, 3-(Isopropoxycarbonyl)-2-propylidene-3-chloro-6-pyridazinylhydrazone] | 70 | 47 | -30 | -15 | 48 | 72 | ≥ -15 | 250 | 50 | 0 |  |  |  |  | 
2 | COC(=O)CC(=NNc1ccc(Cl)nn1)C(=O)OC [Example 64, 1,2-di-(methoxycarbonyl)-ethylidene-(3-chloro-6-pyridazinyl)hydrazone] | 50 | 0 | -25 | -11 |  |  | ≥ -15 | > 200 | 36 | 10 |  |  |  |  | 
3 | Fumaric acid [reference compound] |  |  |  |  |  |  |  |  |  |  | -33 | 0 | 80 |  | 
4 | CC(CC(=O)OC(C)(C)C)=NNc1ccc(N2CCOCC2)nn1 [Example 52, 3-(tert.-Butoxycarbonyl)-2-propylidene-3-morpholino-6-pyridazinylhydrazone] | 30 | 0 |  |  |  |  | ≥ -15 | 400 | 65 | 40 |  |  |  | -21 | -9
5 | CCOC(=O)C1CCCCC1=NNc1ccc(Cl)nn1 (stereo not shown) [Example 17, 2-(Ethoxycarbonyl)-1-cyclohexylidene-3-chloro-6-pyridazinylhydrazone] | 70 | 10 | -23 | -13 |  |  | ≥ -15 | 300 | 85 | 33 |  |  |  |  | 
6 | CC(CC(=O)OC(C)(C)C)=NNc1ccc(Cl)nn1 [Example 30, 3-(tert.-Butoxycarbonyl)-2-propylidene-3-chloro-6-pyridazinylhydrazone] | 70 | 22 | -31 | -14 | 48 | 72 | ≥ -15 | 250 | 50 | 0 |  |  |  |  | 
7 | CCCOC(=O)CC(C)=NNc1ccc(Cl)nn1 [Example 28, 3-(Propoxycarbonyl)-2-propylidene-3-chloro-6-pyridazinylhydrazone] | 90 | 71 | -29 | -25 |  |  | ≥ -15 | > 200 | 0 | 0 |  |  |  |  | 
8 | O=C(O)C1CCCCC1=NNc1cccnn1 (stereo not shown) [Example 19, 2-carboxy-1-cyclohexylidene-3-pyridazinylhydrazone] | 75 | 10 | -8 | -9 |  |  |  | > 200 | 82 | 30 |  |  |  |  | 
9 | CCOC(=O)CC(C)=NNc1ccc(Cl)nn1 [Example 20, 3-(Ethoxycarbonyl)-2-propylidene-(3-chloro-6-pyridazinyl)hydrazone] | 100 | 87 | -25 | -25 |  |  | ≥ -15 | 530 | 100 | 50 |  |  |  |  | 

Source: US4259328A, “Morpholino pyridazinylhydrazones” (Richter Gedeon Vegyeszeti Gyar Rt, priority 1977, dated 1981)
